# Results reported in patent US4220644A, “7-Acylamino-3-(substituted tetrazolyl thiomethyl) cephalosporins” (SmithKline Corporation, priority 1976, dated 1980).
# Read-outs that look alike come from different tables or passages of the source.
# How the values were obtained:
# Shigella HH 117 = test: MIC in vitro (Table 1), Shigella HH 117; assay type: cell-based
# Description: (§1) The compounds of Formula I have antibacterial activity against both Gram-positive and Gram-negative organisms. […] Compound names corresponding to numbers are given in the experimental section. For comparative purposes, data for cephamandole, which is 7-mandelamido-3-(1-methyltetrazol-5-ylthiomethyl)-3-cephem-4-carboxylic acid, is also given in Tables 1 and 2.
# E. coli SK 12140 = test: MIC in vitro (Table 1), E. coli SK 12140; assay type: cell-based; conditions: Escherichia coli, SK12140, in vitro
# Description: (§2) Compound names corresponding to numbers are given in the experimental section. For comparative purposes, data for cephamandole, which is 7-mandelamido-3-(1-methyltetrazol-5-ylthiomethyl)-3-cephem-4-carboxylic acid, is also given in Tables 1 and 2.
# Entero. cloacae HH 31254 = test: MIC in vitro (Table 1), Entero. cloacae HH 31254; assay type: cell-based; conditions: Enterobacter cloacae, HH31254, in vitro, Entero. cloacae HH 31254; read-out: MIC
# Description: as §2
# [1] = test system: Entero. aerog. ATCC 13048; test: MIC in vitro (Table 1), Entero. aerog. ATCC 13048; assay type: cell-based
# Description: as §2
# Kleb. pneumo. 4200 = test: In vivo mouse protection (Table 2), Kleb. pneumo. 4200; conditions: po, Kleb. pneumo. 4200, p.o.
# Description: as §2
# S. aureus HH 127 = test: MIC in vitro (Table 1), S. aureus HH 127; assay type: cell-based; conditions: Staphylococcus aureus
# Description: as §2
# Serra. Marc. ATCC 13880 = test: MIC in vitro (Table 1), Serra. Marc. ATCC 13880; assay type: cell-based
# Description: as §2
# E. coli HH 33779 = test: MIC in vitro (Table 1), E. coli HH 33779; assay type: cell-based; conditions: Escherichia coli
# Description: as §2
# E. coli 12140 = test: In vivo mouse protection (Table 2), E. coli 12140
# Description: as §2
# Salmonella ATCC 12176 = test: MIC in vitro (Table 1), Salmonella ATCC 12176; assay type: cell-based
# Description: as §1
# Kleb. pneumo. SK 1200 = test: MIC in vitro (Table 1), Kleb. pneumo. SK 1200; assay type: cell-based
# Description: as §2
# S. aureus SK 23390 = test: MIC in vitro (Table 1), S. aureus SK 23390; assay type: cell-based; conditions: Staphylococcus aureus
# Description: as §2
# Proteus morgani 179 = test: MIC in vitro (Table 1), Proteus morgani 179; assay type: cell-based
# Description: as §2
# Pseudo. sp. HH 63 = test: MIC in vitro (Table 1), Pseudo. sp. HH 63; assay type: cell-based; conditions: in vitro, Pseudo. sp. HH 63; read-out: MIC
# Description: as §1
# Strep. Faecalis HH 34358 = test: MIC in vitro (Table 1), Strep. Faecalis HH 34358; assay type: cell-based; conditions: Enterococcus faecalis, in vitro, Strep. Faecalis HH 34358; read-out: MIC
# Description: as §2
# Kleb. pneumo. SK 4200 = test: MIC in vitro (Table 1), Kleb. pneumo. SK 4200; assay type: cell-based
# Description: as §2
# [2] = Shigella, HH117, in vitro, read-out: MIC
# [3] = in vitro, Entero. aerog. ATCC 13048, read-out: MIC
# [4] = in vitro, Serra. Marc. ATCC 13880, read-out: MIC
# [5] = HH33779, in vitro, E. coli HH 33779, read-out: MIC
# [6] = Salmonella, ATCC12176, in vitro, read-out: MIC
# [7] = SK23390, in vitro, S. aureus SK 23390, read-out: MIC
# [8] = in vitro, Kleb. pneumo. SK 4200, read-out: MIC
SMILES,MIC (Shigella HH 117; [2]),MIC (Entero. cloacae HH 31254),"MIC [1, 3]",ED50 (Kleb. pneumo. 4200),MIC (Serra. Marc. ATCC 13880; [4]),MIC (E. coli HH 33779; [5]),MIC (Salmonella ATCC 12176; [6]),MIC (Kleb. pneumo. SK 1200),MIC (S. aureus SK 23390; [7]),MIC (Pseudo. sp. HH 63),MIC (Strep. Faecalis HH 34358),MIC (Kleb. pneumo. SK 4200; [8]),also measured
"O=C(O)Cn1nnnc1SCC1=C(C(=O)O)N2C(=O)C(NC(=O)[C@H](O)c3ccccc3)[C@H]2SC1 (stereo partly drawn) [I, 7-D-Mandelamido-3-(1-carboxymethyltetrazol-5-ylthiomethyl)-3-cephem-4-carboxylic acid]",1.6 µg/mL,0.8 µg/mL,6.3 µg/mL,25 mg/kg,100 µg/mL,6.3 µg/mL,1.6 µg/mL,1.6 µg/mL,3.1 µg/mL,> 200 µg/mL,100 µg/mL,0.8 µg/mL,"MIC (Shigella HH 117; in vitro): 0.8 µg/mL; MIC (E. coli SK 12140): 1.6 µg/mL; MIC [1]: 12.5 µg/mL; MIC (S. aureus HH 127; HH127): 6.3 µg/mL; MIC (Serra. Marc. ATCC 13880): 25 µg/mL; MIC (E. coli HH 33779; HH33779): 1.6 µg/mL; ED50 (E. coli 12140; Escherichia coli, 12140, po, E. coli 12140, p.o.): 50 mg/kg; ED50 (E. coli 12140; Escherichia coli, 12140, sc, E. coli 12140, s.c.): 1.56 mg/kg; MIC (Salmonella ATCC 12176; in vitro): 0.8 µg/mL; MIC (Kleb. pneumo. SK 1200; read-out: MIC): 0.8 µg/mL; MIC (S. aureus SK 23390; SK23390): 1.6 µg/mL; MIC (Proteus morgani 179): 3.1 µg/mL; MIC (Kleb. pneumo. SK 4200): 1.6 µg/mL"
"N[C@@H](C(=O)NC1C(=O)N2C(C(=O)O)=C(CSc3nnnn3CC(=O)O)CS[C@H]12)c1ccc(O)cc1 (stereo partly drawn) [II, 7-(D-α-Amino-4-hydroxyphenylacetamido)-3-(1-carboxymethyl-tetrazol-5-ylthiomethyl)-3-cephem-4-carboxylic acid]",6.3 µg/mL,1.6 µg/mL,25 µg/mL,13.2 mg/kg,> 200 µg/mL,12.5 µg/mL,1.6 µg/mL,6.3 µg/mL,12.5 µg/mL,> 200 µg/mL,100 µg/mL,1.6 µg/mL,"MIC (E. coli SK 12140; read-out: MIC): 3.1 µg/mL; MIC (S. aureus HH 127; HH127, in vitro, S. aureus HH 127, read-out: MIC): 12.5 µg/mL; MIC (Proteus morgani 179; read-out: MIC): > 200 µg/mL"
